# In patent US9724329B2, “Stimulating immune response” (Peter MacCallum Cancer Institute, priority 2010, dated 2017):
# Entries after “also recorded” stand apart in the source; their conditions may differ.
# Key:
# transplanted Vk*MYC MM = assay: Transplanted Vk*MYC myeloma model in mice: survival, paraproteinaemia (M-spike), serum immunoglobulin; format: in vivo, mouse; conditions: for efficacy against Vk*MYC MM in vivo (progression): FIG. 8d, lenalidomide 100 mg/kg, NMP, saline control
# Method: Sublethally (6Gy) irradiated C57BL/6 mice were injected with 1×10e5 Vk*myc splenocytes derived from myelomatous mice by intravenous injection. Recipient mice were monitored by serum protein electophoresis for development of monoclonal paraproteinaemia (M-spike). The monoclonal paraprotein is a sensitive and specific marker of myeloma burden, as this protein is only produced by myeloma cells. Paraprotein estimation is a standard clinical parameter by which myeloma is monitored in human patients. Once detected, M-spikes were quantitated by densitometry (expressed as % of total serum protein). […] Mice were monitored by weekly M-spike quantification and for clinically apparent disease. Mice developing distress due to disease progression (e.g. hind limb paralysis, splenic rupture) were euthanased.
# All mouse experiments were carried out in accordance with ethical guidelines determined by the Peter Mac Animal Experimental Ethics Committee. For in vivo assessment of NMP efficacy, treatment studies were performed on mice bearing transplanted Vk*MYC myeloma^2. […] To exclude the potential for adoptive transfer of immune cells with grafts into Rag2^−/−cγ^−/− mice and matched C57BL/6 recipients (FIG. 8f), freshly sorted Vk*MYC MM cells (40,000 per mouse) were used for this experiment. The onset of transplanted disease was confirmed by serum protein electrophoresis; those mice manifesting M-protein >2% of total serum protein (FIG. 8a) or >5% (remaining figures) were selected for treatment.
# All dosing was performed by oral gavage using freshly prepared drug solutions or suspensions. Mice were dosed with NMP according to standard practice for drug administration using NMP/PEG as a vehicle^1. NMP (Sigma Aldrich, NSW, AUS) was diluted 1 in 10 v/v (FIG. 8a) or 1 in 5 v/v (remaining figures) in PEG300 (Sigma Aldrich, NSW, AUS) and administered by oral gavage to a final volume of 1 uL NMP per gram mouse weight.
# BEZ235 was kindly provided by Novartis. According to Novartis' recommendations, BEZ235 was dissolved in NMP by heating briefly to 60° C. and further diluting 1 in 10 v/v in PEG300. Alternatively BEZ235 was suspended in 0.5% methylcellulose (MC) solution and mixed thoroughly prior to administration.
# Lenalidomide was kindly provided by Celgene. Lenalidomide was suspended in 0.9% saline solution immediately prior to oral gavage at a dose of 100 mg/kg.
# Treatment was continued daily for the first month, then weekdays only for the remainder of the indicated treatment period. Mice were culled with the development of features of overt myeloma, including permanent hind-limb paralysis and disseminated extramedullary disease.
# Freshly obtained mouse serum was analyzed for paraproteinemia on the Sebia Hydrasys® semi-automated agarose gel electrophoresis system (Sebia, Norcross, Ga., USA). Serum M-spike densitometry quantification was performed using Phoresis software (release 4.7.2, Sebia) by a biochemist blinded to the nature of group allocation. M-spike results are expressed as a percentage of total serum protein.
# For correlative quantitative immunoglobulin estimates, thawed aliquots of serum were batched for sandwich enzyme-linked immunosorbent assay (ELISA) using Igλ or IgK capture antibodies (Southern Biotech, AL, USA) and biotin/streptavidin detection by horseradish peroxidase/tetramethylbenzidine dihydrochloride substrate standardized against IgMK/IgMl isotype controls (Biolegend, CA, USA). ELISA plates were read using a VersaMax™ microplate reader and analyzed by SoftMax Pro software v 5.4 (Molecular Devices, CA, USA).
# [1] = tested on: K562 cells (natural killer (NK) only sensitive cell line); assay: NK-cell cytotoxicity: drug-treated PBMC as effectors in chromium release assay; format: cell-based, human; conditions: for NK cell function / cytotoxicity (K562 lysis): 10 uM, PBMC cultured 3 days, versus untreated
# Method: (§1) FIG. 10. […] (b) The anti-inflammatory potential of NMP was assessed using LPS-treated CD14+ monocytes that were isolated from healthy donor PBMC. Monocytes were treated with 10 uM NMP or lenalidomide (LEN) and 1 ug/mL LPS for 18 hr or left untreated (Unt), then supernatants were analyzed via cytokine bead array for TNFα and IL-6. (c) The polarizing effect of NMP on cytokine production from PBMC was assessed from supernatants collected after 3d drug treatment. Levels of IL-2, IL-4 and IL-10 were analyzed by cytokine bead array. (d) NK-cell cytotoxicity was assessed by culturing healthy donor PBMC in the presence of 10 uM NMP, 10 uM lenalidomide, or as media alone (Unt). Cells harvested after 3d were washed and used as effectors in chromium release assays against the NK-only sensitive cell line, K562 at an effector ratio of 50:1. […] Data are presented as mean+/−SEM. NS, not statistically significant. (p≧0.05), *p<0.05
# Healthy donor peripheral blood mononuclear cells (PBMC) were cultured for 3 days in RPMI-1640 and 10% FCS in the presence of 10 uM NMP, 10 uM Len (positive control) or no drugs. After 3 days the cells were harvested and used as effectors in a standard 4 hr chromium release assay, using K562 as targets (natural killer (NK) only sensitive cell line) (n=3).
# BEZ235 and lenalidomide were dissolved in dimethylsulfoxide (DMSO) as 10 mM stock solutions and further diluted in media to final concentrations as specified in figure legends. The final concentration of DMSO was not greater than 0.1% v/v in any assay.
# PBMC [2] = assay: Immune cell subset composition of cultured PBMC; format: cell-based, human; conditions: 10 uM, 3 days
# Method: PBMC were cultured in RPMI-1640 and 10% FCS for 3 days in the presence of either 10 uM NMP, 10 uM Len or no drugs. At day 3 the cells were harvested and stained for T cell markers (CD4 and CD8), NK markers (CD3−, CD56) and regulatory T cells (CD3, CD4, CD25, CD127low). For controls, day 0 PBMC were stained to assess changes in cellular subsets after 3 days (n=3).
# U266 cells = assay: Expression of NKG2D and DNAM-1 ligands on myeloma cells (flow cytometry); format: cell-based, human; conditions: 10 uM, 48 hrs; FIG. 10f
# CD14+ monocytes = assay: Inflammatory cytokine secretion by LPS-treated CD14+ monocytes; format: cell-based, human; conditions: 10 uM; for IL-6 secretion / TNFα secretion: FIG. 10b, 1 ug/mL LPS, 18 hr
# Method: as §1
# CD14+ monocytes were sorted via the Dynal bead kit from PBMC. The cells were then treated with LPS to induce cytokine production, and cultured overnight in the presence of 10 uM NMP, 10 uM Len or no drugs. As background controls, non LPS stimulated monocytes were used. The supernatants were harvested and IL-1beta, GM-CSF, IL-6 and TNF-alpha analyzed via the Luminex beady array assay (n=3).
# (§2) Supernatants from cultured cells or serum from VK*MYC mice were used to assess the level of individual cytokines (as specified in the methods and results section) via the Luminex cytokine bead array system. The assay was conducted according to the manufacturer instructions. Briefly, pre-mixed beads were added to 25 uL of undiluted supernatant/serum, followed by the addition of detection antibodies and streptavidin in 96 well filtered-membrane plates. The plates were run on the Luminex 200 instrument and data analysed with the xPONENT software.
# [3] = tested on: peripheral blood mononuclear cells (PBMC); assay: Cytokine production of PBMC (cytokine bead array); format: cell-based, human; conditions: for cytokine secretion profile (Th): FIG. 10c, 3d drug treatment
# Method: PBMC were cultured for 3 days in RPMI-1640 and 10% FCS in the presence of 10 uM NMP, 10 uM Len or no drugs. After 3 days, supernatants were collected and a cytokine bead array performed via the Luminex instrument to analyze changes in IL-2, IL-4 and IL-10 production (n=3).
# as §2
# [4] = tested on: PI3K/mTOR phosphorylation targets; assay: PI3K/mTOR phosphorylation targets in vivo; conditions: in vivo (not shown)
# [5] = tested on: LPS induced inflammation and shock; assay: LPS challenge, serum cytokines in non-tumor bearing mice; format: in vivo, mouse; conditions: FIG. 8c; serum 4 hours after LPS; NMP 1 uL/g po, lenalidomide 2 x 100 mg/kg po
# Method: as §2
# For LPS challenges, non-tumor bearing C57BL/6 mice were administered LPS (E. Coli 0127:B8, gamma-irradiated; Sigma) 1 mg/30 g mouse weight by intraperitoneal injection. NMP (1 uL/g mouse weight in PEG, po) was administered 4 hours prior to LPS. Lenalidomide was administered in 2 doses of 100 mg/kg po 24 and 4 hours prior to LPS. Serum was obtained 4 hours after LPS challenge and analyzed for cytokine content by bead array.
# PBMC [6] = assay: Direct cytotoxicity, Annexin V and 7aad flow cytometry, PBMC; format: cell-based, human; conditions: NMP 0 uM, 1 uM, 10 uM, 100 uM or 10 mM, 48 hours
# Method: (§3) PBMC and a myeloma cell line (U266) were cultured in RPMI-1640 with 10% FCS in the presence of NMP (0 uM, 1 uM, 10 uM, 100 uM or 10 mM) for 48 hours. The cells were stained with viability markers (Annexin V and 7aad) and analyzed on the flow cytometer (n=2).
# [7] = rats, in the diet; cited from earlier work
# Vk*MYC MM bearing mice = assay: Serum cytokines in MM bearing mice; format: in vivo, mouse; conditions: FIG. 8e; one week of treatment, versus SAL
# Method: as §2
# For cytokine assessment in MM bearing mice, mice were treated daily for 7d with NMP or SAL, and serum collected 4 hours after the last dose.
# [8] = bacterial and mammalian tests; cited from earlier work
# [9] = rats, long-term exposure via inhalation or diet; cited from earlier work
# [10] = in vivo; cited from earlier work
# myeloma cell line (U266) = assay: Direct cytotoxicity, Annexin V and 7aad flow cytometry, U266; format: cell-based, human; conditions: NMP 0 uM, 1 uM, 10 uM, 100 uM or 10 mM, 48 hours
# Method: as §3
compound,measurement,setting,value
"Cn1c(=O)n(-c2ccc(C(C)(C)C#N)cc2)c2c3cc(-c4cnc5ccccc5c4)ccc3ncc21 [BEZ235, reference compound]",median survival,"transplanted Vk*MYC MM; FIG. 8a, BEZ235 25 mg/kg/d concurrent with NMP/PEG, n=6",42.5 days
same,effect on disease progression,"transplanted Vk*MYC MM; FIG. 8a, BEZ235 in MC vehicle",minimal effect
same,median survival,"transplanted Vk*MYC MM; FIG. 8a, BEZ235 in MC vehicle, n=8",47.5 days
same,effect of concurrent administration on the therapeutic effect of NMP,"transplanted Vk*MYC MM; FIG. 8a, BEZ235 with NMP/PEG",antagonized
same,effect of co-treatment on NMP-induced NK-cell lysis,"[1]; BEZ235 250 nM with NMP, FIG. 10e",inhibited; also recorded: downregulated
"Nc1cccc2c1CN(C1CCC(=O)NC1=O)C2=O (stereo not shown) [Lenalidomide, reference compound]","proportions of immune cell subtypes (CD4, CD8, NK, regulatory T cells)",PBMC [2],without altering
same,"expression of NKG2D and DNAM-1 ligands (MIC-B, ULBP-1, ULBP-2 and CD155)",U266 cells,a property not shared
same,efficacy against Vk*MYC MM in vivo (progression),transplanted Vk*MYC MM,poor efficacy
same,efficacy against Vk*MYC MM in vivo (progression),transplanted Vk*MYC MM; listed as lenalidomide,minimal effects
same,NK cell function / cytotoxicity (K562 lysis),[1],enhanced
same,IL-6 secretion,CD14+ monocytes,suppressed
same,TNFα secretion,CD14+ monocytes,suppressed
same,IL-2 production,"[3]; 10 uM, 3 days",without altering
same,cytokine secretion profile (Th),[3],away from a Th-2 profile
same,effect on PI3K/mTOR phosphorylation targets,[4],did not detect any consistent effect
same,IL-6 production following LPS challenge,[5],only NMP suppressed
same,TNFα serum levels following LPS challenge,[5],suppressed
"CN1CCCC1=O [NMP, N-methylpyrrolidone]",direct cytotoxicity (AnnV+7aad+),PBMC [6],did not increase to any significant extent; also recorded: not cytotoxic
same,"proportions of immune cell subtypes (CD4, CD8, NK, regulatory T cells)",PBMC [2],no significant alteration; also recorded: without altering
same,"expression of NKG2D and DNAM-1 ligands (MIC-B, ULBP-1, ULBP-2 and CD155)",U266 cells,upregulated
same,no-effect level (for a decrease in pup body weight),[7],160 mg/kg/day
same,median survival,"transplanted Vk*MYC MM; Example 1, FIG. 1, C57BL/6, NMP/PEG 1:10 v/v, 10 uL per gram, daily oral, 60 days, control 46 days",60 days
same,residual polyclonal Ig Lambda (L),transplanted Vk*MYC MM; FIG. 8b,better maintained; also recorded: less suppressed
same,clonally secreted Ig Kappa (K),"transplanted Vk*MYC MM; FIG. 8b, NMP/PEG versus PEG alone or PBS",Suppression
same,NMP response in Rag2−/−cγ−/− knockout mice,"transplanted Vk*MYC MM; FIG. 8f, immunodeficient mice lacking T, B or NK cells",No response
same,NMP response in wild type C57BL/6 mice,"transplanted Vk*MYC MM; FIG. 8f, same Vk*MYC clone",only observed in wild type C57BL/6
same,efficacy against Vk*MYC MM in vivo (progression),transplanted Vk*MYC MM,regressed
same,serum IL-6,Vk*MYC MM bearing mice,reductions
same,serum TNFα,Vk*MYC MM bearing mice,reductions
same,genotoxicity,[8],no genotoxicity
same,NK cell function / cytotoxicity (K562 lysis),[1],enhancement; also recorded: enhanced
same,"secretion of the four inflammatory cytokines (IL-1beta, GM-CSF, IL-6, TNF-alpha)","CD14+ monocytes; Example 6, FIG. 7, overnight, relative to LPS only control",not shown to demonstrate a statistically significant effect
same,IL-6 secretion,CD14+ monocytes,Statistically significant inhibition; also recorded: suppressed
same,TNFα secretion,CD14+ monocytes,Statistically significant inhibition; also recorded: suppressed
same,IL4 production,"[3]; 10 uM, 3 days",inhibit
same,IL10 production,"[3]; 10 uM, 3 days",inhibit
same,cytokine secretion profile (Th),[3],away from a Th-2 profile
same,carcinogenic effects,[9],no carcinogenic effects
same,effect on PI3K/mTOR phosphorylation targets,[4],did not detect any consistent effect
same,oral LD50,[10],3600 to 7700 mg/kg
same,direct cytotoxicity (AnnV+7aad+),myeloma cell line (U266),did not increase to any significant extent; also recorded: not cytotoxic
same,IL-6 production following LPS challenge,[5],suppressed
same,TNFα serum levels following LPS challenge,[5],suppressed
